test system: Huh-7 cells; assay: Cellular rRNA levels / cytotoxicity in HCV replicon cells; details: 7.0 μM
Text: In a typical setting, a compound might reduce both the host RNA polymerase activity and the replicon-encoded polymerase activity. Therefore, quantification of rRNA (or any other host RNA polymerase I product) or beta-actin mRNA (or any other host RNA polymerase II) and comparison with RNA levels of the no-drug control is a relative measurement of the effect of the test compound on host RNA polymerases.
With the availability of both the HCV ΔCt data and the rRNA ΔCt, a specificity parameter can be introduced. This parameter is obtained by subtracting both ΔCt values from each other.
IFN-α-2a and ribavirin were tested over a range of concentrations for their ability to reduce the HCV RNA levels in exponentially growing replicon cells after 4 days of exposure as described (Stuyver, L. et al. “A ribonucleoside analogue that blocks the replication of bovine viral diarrhea and hepatitis C viruses in culture” Antimicrob. Agents Chemother. 2003, 47, 244-254).
Gemcitabine was dissolved in DMSO and added to the culture media of a cellular model system of Huh7 cells harboring self-replicating HCV RNA, at final concentrations ranging from […]. In such experiments, one way to express the antiviral effectiveness of a compound is to subtract the threshold reverse-transcriptase polymerase chain reactions (RT-PCR) cycle of the test compound with the average threshold RT-PCR cycle of the negative control. This value is called DeltaCt (ΔCt or dCt). With the availability of both the HCV ΔCt data and the rRNA ΔCt, a specificity parameter can be introduced. This parameter is obtained by subtracting both ΔCt values from each other.

In the case of `O=c1ccn(C2OC(CO)C(O)C2(F)F)c(=O)[nH]1` (stereo not drawn) [dFdU], the “dCt rRNA” value is reported as 1.96.

same assay, conditions: 100 μM; 4 days; HCV replicon transfected Huh-7 cells

Point of comparison: `NC(=O)c1ncn([C@@H]2O[C@H](CO)[C@@H](O)[C@H]2O)c1O` [Mizoribine], “log10 RNA reduction at 100 μM, rRNA” value 0.21 ± 0.50 log10. Against it:
- O=c1[nH]c(=O)n([C@H]2C[C@H](O)[C@@H](CO)O2)cc1F [2′-deoxy-5-fluorouridine] — within error, 0.73 ± 0.35 log10
- O=C1C(O)=C(CC=C(Cl)Cl)C(=O)c2ccccc21 [Dichloroallyl lawsone (NSC-126771), Dichloroallyl lawsone] — higher, 2.13 ± 0.15 log10
- O=c1cnn([C@@H]2O[C@H](CO)[C@@H](O)[C@H]2O)c(=O)[nH]1 [6-azauridine] — within error, 0.61 ± 0.18 log10
- Nc1ccn([C@@H]2C=C(CO)[C@@H](O)[C@H]2O)c(=O)n1 [CPE-C, cyclopentenylcytosine] — higher, 1.21 ± 0.16 log10
- CC(=O)N(O)CCCCCNC(=O)CCC(=O)N(O)CCCCCNC(=O)CCC(=O)N(O)CCCCCN [Deferoxamine] — higher, 0.92 ± 0.08 log10
- Cc1c(-c2ccc(-c3ccccc3F)cc2)nc2ccc(F)cc2c1C(=O)O [Brequinar (NSC-368390), Brequinar] — within error, 0.29 ± 0.01 log10
- O=c1cnn([C@@H]2O[C@H](CO)[C@@H](O)[C@H]2O)c(=S)[nH]1 [2-thio-6-azauridine] — within error, −0.02 ± 0.12 log10

test system: HCV replicon; assay: HCV replicon assay: HCV RNA by Q-RT-PCR, 4 days exposure; assay type: cell-based, hepatitis C virus (HCV); details: 7.0 μM
Protocol: Antiviral screening assays can be done in the same media without G418 as follows: in order to keep cells in logarithmic growth phase, seed cells in a 96-well plate at low density, for example 1000 cells per well. Add the test compound immediate after seeding the cells and incubate for a period of 3 to 7 days at 37° C. in an incubator. Media is then removed, and the cells are prepared for total nucleic acid extraction (including replicon RNA and host RNA). Replicon RNA can then be amplified in a Q-RT-PCR protocol, and quantified accordingly. […] This value is called DeltaCt (ΔCt or DCt).
This value is called DeltaCt (ΔCt or dCt).

In the case of `O=c1ccn(C2OC(CO)C(O)C2(F)F)c(=O)[nH]1` (stereo not drawn) [dFdU], the “dCT HCV” value is reported as 6.39.

same assay, conditions: 7.0 μM; HCV dCt minus rRNA dCt

Compound `O=c1ccn(C2OC(CO)C(O)C2(F)F)c(=O)[nH]1` (stereo not drawn) [dFdU] has a ddCt of 4.42.

same assay, conditions: 10 μM; corrected for rRNA

Point of comparison: `O=C1C(O)=C(CC=C(Cl)Cl)C(=O)c2ccccc21` [Dichloroallyl lawsone (NSC-126771), Dichloroallyl lawsone], “Corrected HCV RNA log10 reduction at 10 μM” value −0.52 ± 0.01 log10. Against it:
- CC(=O)N(O)CCCCCNC(=O)CCC(=O)N(O)CCCCCNC(=O)CCC(=O)N(O)CCCCCN [Deferoxamine] — higher, 0.17 ± 0.11 log10
- O=c1cnn([C@@H]2O[C@H](CO)[C@@H](O)[C@H]2O)c(=S)[nH]1 [2-thio-6-azauridine] — higher, 0.12 ± 0.10 log10

same assay, conditions: 100 μM; 4 days; HCV replicon transfected Huh-7 cells

Point of comparison: `O=C1C(O)=C(CC=C(Cl)Cl)C(=O)c2ccccc21` [Dichloroallyl lawsone (NSC-126771), Dichloroallyl lawsone], “log10 RNA reduction at 100 μM, HCV” value 1.27 ± 0.02 log10. Against it:
- O=c1cnn([C@@H]2O[C@H](CO)[C@@H](O)[C@H]2O)c(=S)[nH]1 [2-thio-6-azauridine] — lower, 0.16 ± 0.04 log10

same assay, conditions: 100 μM; corrected for rRNA

Point of comparison: `O=C1C(O)=C(CC=C(Cl)Cl)C(=O)c2ccccc21` [Dichloroallyl lawsone (NSC-126771), Dichloroallyl lawsone], “Corrected HCV RNA log10 reduction at 100 μM” value −0.86 ± 0.17 log10. Against it:
- O=c1cnn([C@@H]2O[C@H](CO)[C@@H](O)[C@H]2O)c(=S)[nH]1 [2-thio-6-azauridine] — higher, 0.19 ± 0.09 log10

same assay, conditions: 96 h incubation; read-out: Corrected HCV RNA EC90

Point of comparison: `Nc1ccn([C@@H]2C=C(CO)[C@@H](O)[C@H]2O)c(=O)n1` [CPE-C, cyclopentenylcytosine], EC90 2.5 µM. Against it:
- O=C1C(O)=C(CC=C(Cl)Cl)C(=O)c2ccccc21 [Dichloroallyl lawsone (NSC-126771), Dichloroallyl lawsone] — higher, > 100 µM
- O=c1cnn([C@@H]2O[C@H](CO)[C@@H](O)[C@H]2O)c(=S)[nH]1 [2-thio-6-azauridine] — higher, > 100 µM

same assay, conditions: Hepatitis C virus, 96 h, read-out: Corrected HCV RNA log10 reduction at 10 μM

Point of comparison: `O=c1[nH]c(=O)n([C@H]2C[C@H](O)[C@@H](CO)O2)cc1F` [2′-deoxy-5-fluorouridine], log reduction at 10 µM 0.23 ± 0.05. Against it:
- NC(=O)c1ncn([C@@H]2O[C@H](CO)[C@@H](O)[C@H]2O)c1O [Mizoribine] — lower, -0.14 ± 0.12

same assay, conditions: Hepatitis C virus, 96 h, read-out: Corrected HCV RNA log10 reduction at 100 μM

Point of comparison: `O=c1[nH]c(=O)n([C@H]2C[C@H](O)[C@@H](CO)O2)cc1F` [2′-deoxy-5-fluorouridine], log reduction at 100 µM 0.04 ± 0.25. Against it:
- NC(=O)c1ncn([C@@H]2O[C@H](CO)[C@@H](O)[C@H]2O)c1O [Mizoribine] — within 0.2 log units, 0.08 ± 0.82

same assay, conditions: Hepatitis C virus, 96 h; 10 μM; corrected for rRNA; read-out: Corrected HCV RNA log10 reduction at 10 μM

Point of comparison: `Nc1ccn([C@@H]2C=C(CO)[C@@H](O)[C@H]2O)c(=O)n1` [CPE-C, cyclopentenylcytosine], log reduction at 10 µM 1.43 ± 0.01. Against it:
- O=c1cnn([C@@H]2O[C@H](CO)[C@@H](O)[C@H]2O)c(=O)[nH]1 [6-azauridine] — lower, 0.12 ± 0.05
- Cc1c(-c2ccc(-c3ccccc3F)cc2)nc2ccc(F)cc2c1C(=O)O [Brequinar (NSC-368390), Brequinar] — lower, -0.17 ± 0.09

same assay, conditions: Hepatitis C virus, 96 h; 100 μM; 4 days; HCV replicon transfected Huh-7 cells; read-out: log10 RNA reduction at 100 μM, HCV

Point of comparison: `Cc1c(-c2ccc(-c3ccccc3F)cc2)nc2ccc(F)cc2c1C(=O)O` [Brequinar (NSC-368390), Brequinar], log reduction at 100 µM -0.05 ± 0.05. Against it:
- O=c1[nH]c(=O)n([C@H]2C[C@H](O)[C@@H](CO)O2)cc1F [2′-deoxy-5-fluorouridine] — higher, 0.76 ± 0.06
- NC(=O)c1ncn([C@@H]2O[C@H](CO)[C@@H](O)[C@H]2O)c1O [Mizoribine] — within error, 0.29 ± 0.74
- O=c1cnn([C@@H]2O[C@H](CO)[C@@H](O)[C@H]2O)c(=O)[nH]1 [6-azauridine] — higher, 0.25 ± 0.09
- Nc1ccn([C@@H]2C=C(CO)[C@@H](O)[C@H]2O)c(=O)n1 [CPE-C, cyclopentenylcytosine] — higher, 2.47 ± 0.33

same assay, conditions: Hepatitis C virus, 96 h; 100 μM; corrected for rRNA; read-out: Corrected HCV RNA log10 reduction at 100 μM

Point of comparison: `O=c1cnn([C@@H]2O[C@H](CO)[C@@H](O)[C@H]2O)c(=O)[nH]1` [6-azauridine], log reduction at 100 µM -0.36 ± 0.16. Against it:
- Nc1ccn([C@@H]2C=C(CO)[C@@H](O)[C@H]2O)c(=O)n1 [CPE-C, cyclopentenylcytosine] — higher, 1.26 ± 0.51
- CC(=O)N(O)CCCCCNC(=O)CCC(=O)N(O)CCCCCNC(=O)CCC(=O)N(O)CCCCCN [Deferoxamine] — higher, 0.08 ± 0.03
- Cc1c(-c2ccc(-c3ccccc3F)cc2)nc2ccc(F)cc2c1C(=O)O [Brequinar (NSC-368390), Brequinar] — within 0.2 log units, -0.34 ± 0.04

same assay, conditions: Hepatitis C virus; 96 h incubation; read-out: Corrected HCV RNA EC90

`O=c1[nH]c(=O)n([C@H]2C[C@H](O)[C@@H](CO)O2)cc1F` [2′-deoxy-5-fluorouridine] and `O=c1cnn([C@@H]2O[C@H](CO)[C@@H](O)[C@H]2O)c(=O)[nH]1` [6-azauridine] cannot be ordered by EC90: over 100 µM for the first, over 100 µM for the second.

`NC(=O)c1ncn([C@@H]2O[C@H](CO)[C@@H](O)[C@H]2O)c1O` [Mizoribine] and `Cc1c(-c2ccc(-c3ccccc3F)cc2)nc2ccc(F)cc2c1C(=O)O` [Brequinar (NSC-368390), Brequinar] cannot be ordered by EC90: over 100 µM for the first, over 100 µM for the second.

`CC(=O)N(O)CCCCCNC(=O)CCC(=O)N(O)CCCCCNC(=O)CCC(=O)N(O)CCCCCN` [Deferoxamine] showed an EC90 of over 100 µM.

— US20050049220A1, “Dosing regimen for Flaviviridae therapy” (priority 2003, published 2005)
